Source: US12390447B2, “Sirtuin 6 protein deacylase (SIRT6) activators” (Wisconsin Alumni Research Foundation, priority 2019, dated 2025)

Tests used:
Type in all cases: biochemical
SIRT6 [1] = target: T1, SIRT6 (Homo sapiens, UniProt Q8N6T7); experiment: Small molecule SIRT6 activator screen (H3K9ac peptide deacetylation, HPLC); settings: compound 100 μM; SIRT6 1 μM; H3K9ac peptide 20 μM; 0.5 mM NAD+
Protocol: Mastermix containing SIRT6, buffer, and H3K9ac peptide were distributed to wells using Microflex peristaltic dispenser (Beckman). Plates were spun and preheated to 37° C. before addition of NAD^+ using peristaltic dispenser. After 60 minutes reactions were quenched with 2% TFA final using peristaltic dispenser then sealed and spun again before in-house HPLC separation and quantification of substrate and product peptides. Reaction conditions were 1 μM SIRT6, 0.5 mM NAD^+, […] (4-16), 20 mM potassium phosphate pH 7.5, 10% DMSO, and either 10 or 100 μM compound determined by 10-fold dilution of stock library concentration.
All sirtuin deacylation assays were carried out at 37° C. in 20 mM potassium phosphate pH 7.5 with 0.5 mM NAD^+, 10% DMSO, and 20 μM H3K9ac or H3K9myr peptides, unless otherwise noted in legend, and quenched by the addition of 2% TFA final. Steady-state reactions were constrained to less than 20% substrate turnover to prevent product inhibition. A variety of times were required to monitor SIRT6 deacetylation (2-60 minutes) under this restraint given the ability to strongly activate catalysis. In these cases, specific activities were determined and either reported as is or as fold-activation of specific activity. […] Deacetylation reactions were analyzed using a gradient of 33-100% B (30% acetonitrile with 0.05% TFA) in 8 min at 1.6 mL min^−1. Demyristoylation reactions were analyzed using a gradient of 3 to 100% B (acetonitrile with 0.05% TFA) in 10 min at 1.6 mL min^−1. The product and substrate peaks were quantified and ratio of these allowed for quantification of product formation.

SIRT6 [2] = target: T1, SIRT6; experiment: SIRT6 deacetylation of H3K9ac peptide, fold-activation versus activator concentration; settings: for EC50: H3K9ac peptide 20 μM, sigmoidal curve fit
Protocol: (1A) Compound libraries BML-2803, BML-2800, and an additional set of 178 molecules were screened at 100 μM for their ability to stimulate SIRT6 (1 μM) deacetylation of H3K9ac peptide (20 μM) in the presence of 0.5 mM NAD^+. SIRT6 activity was measured by HPLC quantification of H3K9ac and deacetylated product (inset) and fold activations relative to DMSO control were determined and compiled. (1B) Fold-activation of SIRT6 (1 μM) determined in the presence of either 0-400 μM CL4, 0-150 μM TTNPB, 0-100 μM Lysophosphatidic acid (LPA), or 0-200 μM linoleoylglycine (LGly). Maximum fold-activation and EC50 determined by sigmoidal curve fit. (1C) Steady-state kinetic analysis of SIRT6 (1 μM) deacetylation was conducted with 0-250 μM H3K9ac peptide in the presence of 100 μM CL4, 50 μM TTNPB, 50 μM LPA, or 50 μM LGly. Constants Km, H3K9ac and kcat were determined by fitting data to Michaelis-Menten equation. (1D) Fold-activations of SIRT1 (0.1 μM), SIRT2 (0.2 μM), SIRT3 (1 μM), SIRT5 (2 μM), and SIRT6 (1 μM) determined in the presence of CL4 (100 μM), TTNPB (50 μM), and LPA (50 μM) relative to DMSO control against 20 μM H3K9ac peptide and 0.5 mM NAD^+. Mean values reported with error bars representing standard deviation of at least three replicates.
All sirtuin deacylation assays were carried out at 37° C. in 20 mM potassium phosphate pH 7.5 with 0.5 mM NAD^+, 10% DMSO, and 20 μM H3K9ac or H3K9myr peptides, unless otherwise noted in legend, and quenched by the addition of 2% TFA final. Steady-state reactions were constrained to less than 20% substrate turnover to prevent product inhibition. A variety of times were required to monitor SIRT6 deacetylation (2-60 minutes) under this restraint given the ability to strongly activate catalysis. In these cases, specific activities were determined and either reported as is or as fold-activation of specific activity. Deacylation reactions were analyzed by reversed phase high-performance liquid chromatography on a Kinetex C18 column (100 Å, 100×4.6 mm, 2.6 μm, Phenomenex) by monitoring the formation of the deacylated product at 214 nm. Deacetylation reactions were analyzed using a gradient of 33-100% B (30% acetonitrile with 0.05% TFA) in 8 min at 1.6 mL min^−1. Demyristoylation reactions were analyzed using a gradient of 3 to 100% B (acetonitrile with 0.05% TFA) in 10 min at 1.6 mL min^−1. The product and substrate peaks were quantified and ratio of these allowed for quantification of product formation. […]

SIRT6 [3] = target: T1, SIRT6; experiment: Histone deacetylation assay with acid extracted histones, H3K9ac immunoblot; settings: 50 μM compound; histones 75 μg/mL from SAHA-treated HEK293T cells; SIRT6 1 μM
Protocol: HEK293T cells were cultured in Dulbecco's Modified Eagle Medium supplemented with 10% fetal bovine serum. Cells were treated with 10 μM SAHA for 24 hours prior to harvest. Cells were trypsinized and pelleted prior to washing twice with ice-cold PBS. Cells were then resuspended in 800 μL ice-cold 10 mM HEPES pH 7.4, 10 mM KCl, 0.05% NP-40, and histone deacetylase and protease inhibitors (1 mM sodium butyrate, 4 μM trichostatin A, 100 μM phenylmethylsulfonyl fluoride, 10 μg/mL leupeptin, and 10 μg/mL aprotinin) for 20 minutes. After a 1,000×g 10 minute spin at 4° C. the pelleted nuclei were resuspended in 0.2 M HCl and incubated on ice for 20 minutes. Following 10 minute spin at 21,000×g at 4° C. the acid extracted supernatant was neutralized with 1 M Tris-HCl pH 8 prior to BCA protein concentration measurement. Histone deacetylation assays were ran with 75 μg/mL extracted histones, 1 μM SIRT6, 50 μM CL5, CL5D or 5% DMSO control, 0.5 mM NAD^+, in 20 mM potassium phosphate pH 7.5. Reactions ran at 37° C. prior to quench with SDS loading dye and 5 minute boil. 540 ng of nuclei acid extract following sirtuin reaction were loaded for 15% SDS-PAGE followed by transfer to nitrocellulose. Membrane was blocked with 1% milk before blotted with anti-H3K9ac (Active Motiff 39917) 1:3000 and imaged. […] Bands were quantified using Image Studio Lite (LiCor). […]

T1 sequence (Q8N6T7 whole entry): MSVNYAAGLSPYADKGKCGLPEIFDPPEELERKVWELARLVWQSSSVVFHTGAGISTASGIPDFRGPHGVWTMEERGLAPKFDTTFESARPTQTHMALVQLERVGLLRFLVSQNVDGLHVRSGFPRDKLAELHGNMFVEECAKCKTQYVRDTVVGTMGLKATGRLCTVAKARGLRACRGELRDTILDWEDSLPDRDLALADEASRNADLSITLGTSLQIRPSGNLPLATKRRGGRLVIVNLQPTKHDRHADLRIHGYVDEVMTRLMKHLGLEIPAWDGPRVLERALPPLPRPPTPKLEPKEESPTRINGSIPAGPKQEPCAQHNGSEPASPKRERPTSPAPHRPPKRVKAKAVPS

| Molecule | F.A. (fold-activation of SIRT6 relative to DMSO control) (SIRT6 [1]) | further results |
| --- | --- | --- |
| CCCCCCCCCCCCCCC(F)C(=O)O (stereo not shown) [2-Fluoropalmitic acid] | 25 fold | – |
| CCCCC/C=C\C/C=C\C/C=C\C/C=C\CCCC(=O)O [Arachidonic acid (20:4 n-6)] | 15 fold | – |
| O=C(O)c1ccc2c(c1)C(=O)N(c1ccc(NC(=O)c3ccccc3)cc1)C2=O [CL-5, 2-(4-benzamidophenyl)-1,3-dioxoisoindoline-5-carboxylic acid] | – | concentration required to stimulate 4-fold activation of SIRT6 (SIRT6 [2]; SIRT6 1 μM, H3K9ac 20 μM, 0.5 mM NAD+): >400 µM; activation of SIRT6 (in words) (SIRT6 [2]; concentrations up to 400 μM): no activation; SIRT6 deacetylation at H3K9 of whole histone substrate (in words) (SIRT6 [3]): not |
| CCCCCCCC/C=C\CCCCCCCC(=O)OCC(O)COP(=O)(O)O (stereo not shown) [Lysophosphatidic acid, oleoyl-lysophosphatidic acid, reference compound] | – | EC50 (SIRT6 [2]; SIRT6 1 μM, 0.5 mM NAD+): 25 ± 1 µM |
| CCCCCCCC/C=C\C/C=C\C/C=C\CCCC(=O)O [Mead acid (20:3 n-9)] | 16 fold | – |
| C/C(=C\c1ccc(C(=O)O)cc1)c1ccc2c(c1)C(C)(C)CCC2(C)C [TTNPB, arotinoid acid, reference compound] | – | EC50 (SIRT6 [2]; SIRT6 1 μM, 0.5 mM NAD+): 53 ± 3 µM |
| CCCCCCCCCCCCCC(=O)O [myristic acid] | 3.7 fold | – |
| Eicosatrienoic acid (20:3 n-3) | 17 fold | – |
